# Read-outs that look alike come from different tables or passages of the source.
# Columns and labels:
# S. typhimurium TA1537 = test: Ames microplate test, TA1537; type: cell-based, Salmonella typhimurium;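 further: reference level is the mean solvent-control yellow wells plus SD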
# Method: (§1) Bacteria were grown overnight in growth medium.
# (§2) Table 9. Ames microplate test results.
# S. typhimurium TA1535 = test: Ames microplate test, TA1535;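 further: bacteria exposed to compound 90 min at 37 °C, then kept 48 h at 37 °C with indicator medium in 384-well plates, scoring wells that turned yellow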
# Method: The study used the Ames microplate test (Ames MPF™ Penta 2 by Xenometrix, Allschwil, Switzerland). Growth medium, exposure medium, indicator medium, positive controls, hepatic microsomal fraction, NADP, glucose-6-phosphate, Salmonella typhimurium and Escherichia coli strains were components of the purchased experimental kit. Bacteria were grown overnight in growth medium. They were then exposed to the test compound at the appropriate concentration in exposure medium without or with the rat microsomal fraction S9 in 24-well plates for 90 min at 37 °C with shaking. Then, indicator medium was added to the wells and pipetted into 384-well plates, which were incubated for 48 hours at 37 °C without shaking. Results were assessed by counting the wells in which the medium turned yellow for each experimental condition.
# S. typhimurium TA100 = test: Ames microplate test, TA100; type: cell-based, Salmonella typhimurium;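 further: reference level is the mean solvent-control yellow wells plus SD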
# Method: as §1, §2
# [1] = Lipophilicity coefficient RM0 by reversed phase thin layer chromatography; type: physicochemical; settings: RP-18 TLC, methanol / 100 mM phosphate buffer pH = 7.4
# Method: Confirmation of the identity and purity of the obtained compounds consisted in the registration and interpretation of ^1H NMR and ^13C NMR spectra (the spectra were recorded using an ECZR 500 MHz (JEOL) series FT-NMR spectrophotometer), as well as the registration and interpretation of LC-MS spectra (the spectra were recorded using Acquita UPLC system (Waters) coupled with a Waters TQD mass spectrometer). The melting point was measured using the open capillary method in the IA9300 device (Electrothermal). The lipophilicity coefficient RM0 was determined by reversed phase thin layer chromatography. In the study, aluminum plates 20x20 cm covered with modified silica gel RP-18 F254 (Merck) were used as the solid phase. The mobile phase consisted of solutions of methanol and 100 mM phosphate buffer (pH = 7.4), characterized by a variable methanol content ranging from 95 to 65% (v/v). The tested compounds were dissolved in methanol to obtain solutions with a concentration of 1 mg/mL. Then, 5 µL of the solutions prepared in this way were transferred to the starting line on aluminum plates, which were then placed in chromatographic chambers previously saturated with mobile phase vapors for at least 1 hour. All activities, including the development of chromatograms, were carried out at room temperature. After developing the chromatograms to approximately 1-2 cm from the end of the plate, the plates were dried and then the distance traveled by the tested compounds was visualized under UV light (λ = 254 nm). The experiment was performed in duplicate for the specified conditions. For all samples, Rf was calculated according to the formula Rf = a/b, where a - the distance traveled by the tested compound, b - the distance traveled by the mobile phase. Then, the RM parameter was calculated for all samples according to the formula RM = log(1/Rf - 1), obtaining a linear relationship between the RM values and the methanol concentration in the mobile phase. The logP coefficient was also calculated using the following computer programs: ACD/ChemSketch 2020.1.2 and ChemDraw 20.0.0.41. Table 2. The physicochemical data of the compounds are presented below
# E. coli WP2 = test: Ames microplate test, E. coli WP2;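 further: bacteria treated 90 min at 37 °C in 24-well plates, then indicator medium dispensed to 384-well plates and incubated 48 h before yellow-well counting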
# [2] = test system: B16-F10 murine melanoma cell line; test: Cytotoxicity in B16-F10 cells (MTT); type: cell-based; settings: 48 h
# Method: In order to determine safe doses of compounds for testing the inhibition of melanogenesis in a murine melanoma cell line, cytotoxicity tests were performed. Cytotoxicity was determined by the colorimetric method using MTT ([3-(4,5-dimethyl-2-thiazolyl)-2,5-diphenyl-2H-tetrazolium bromide, Sigma M5655). For this purpose, cells were transferred to 96-well plates in an amount of 5000/well. After 24 h of culture in an incubator in F 10-Ham medium with 1% FBS, the tested compounds at various concentrations were added to the wells together with fresh medium. DMSO was added to the medium in a negative control. The MTT test was performed after further culture for 48 h. Then the medium was removed and the formed formazan crystals were dissolved in DMSO. The absorbance was measured at 570 nm in a plate reader and the result was compared to the control (DMSO), which was 100%. The percentage of viability was calculated using the formula: [AT/AC^∗100], where AT is the absorbance of the test sample, AC - absorbance of the control sample. Table 3. Results of inhibiting the activity of monophenolase […] tyrosinase and cytotoxicity testing in B16F10 cells for the described compounds.
# [3] = test system: Chinese hamster ovary cell line (CHO-K1); test: Genotoxicity in the micronucleus test in CHO-K1 cells; type: cell-based
# tyrosinase from mushroom = test: Inhibition of commercial mushroom tyrosinase (L-DOPA or L-tyrosine substrate); type: biochemical
# Method: The following substrates were used for the enzymatic reaction: L-tyrosine and L-3,4-dihyroxyphenylalanine (L-DOPA). Both substrates were used in independent experiments. According to the literature, the use of L-DOPA enables the assessment of tyrosinase diphenolase activity, and L-tyrosine - the tyrosinase monophenolase activity. The determinations were performed in 96-well plates, in each well there was placed: 170 µL or 127.5 µL of 50 mM phosphate buffer (pH = 6.8) with tyrosinase (1U/well or 3U/well) and 10 µL of a solution of the tested compound in DMSO (the final concentration in the well was 500 µM, 250 µM or 125 µM). The negative control used 10 µL of pure solvent (DMSO). To initiate the reaction, an appropriate substrate was added: L-tyrosine (62.5 µL of solution in phosphate buffer) or L-DOPA (20 µL of solution in phosphate buffer). After a 25-minute incubation, the absorbance was measured at 475 nm using a microplate reader. The percentage of inhibition of tyrosinase activity was calculated using the formula: [(AC -AT)/AC] × 100, where AC - is the absorbance of the negative control, AT - is the absorbance of the sample containing the tested compound.
# S. typhimurium TA98 = test: Ames microplate test, TA98; type: cell-based, Salmonella typhimurium;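 further: reference level is the mean solvent-control yellow wells plus SD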
# Method: as §1, §2
# [4] = test system: Chinese hamster ovary cell line (CHO-K1); test: Cytotoxicity in CHO-K1 cells (MTT) before the micronucleus test; type: cell-based; settings: 24 hours
# Method: The assay was performed using a Chinese hamster ovary cell line (CHO-K1) purchased from the American Type Culture Collection (ATCC). The cells were cultured in F-12K medium with the addition of 10% fetal bovine serum (FBS) and antibiotics (streptomycin/penicillin) in an incubator at 37 °C and 5% CO2 concentration). Before the actual micronucleus test, a cytotoxicity assessment was performed to ensure that the actual test was performed only at safe concentrations. For this purpose, cells were transferred to 96-well plates and incubated with the tested compounds for 24 hours. After this time, the MTT test was performed and cell viability was assessed in comparison to the control group (cells cultured with DMSO at the same concentration as in the case of the tested samples).
compound,measurement,setting,value
"CCC(O)CNC(=O)/C=C/c1ccc(Cl)cc1 (centres unmarked) [Compound A-67, (2E)-3-(4-chlorophenyl)-N-(2-hydroxybutyl)prop-2-enamide]",Increase in the number of yellow wells compared to the reference level,"S. typhimurium TA1537; 0.5 mM, +S9",1.00
same,Increase in the number of yellow wells compared to the reference level,"S. typhimurium TA1537; 0.5 mM, without S9",0.00
same,Increase in the number of yellow wells compared to the reference level,"S. typhimurium TA1537; 1.0 mM, +S9",1.33
same,Increase in the number of yellow wells compared to the reference level,"S. typhimurium TA1537; 1.0 mM, without S9",0.18
same,Increase in the number of yellow wells compared to the reference level,"S. typhimurium TA1537; 2.0 mM, +S9",0.00
same,Increase in the number of yellow wells compared to the reference level,"S. typhimurium TA1537; 2.0 mM, without S9",0.82
same,Increase in the number of yellow wells compared to the reference level,"S. typhimurium TA1535; 0.5 mM, +S9",0.27
same,Increase in the number of yellow wells compared to the reference level,"S. typhimurium TA1535; 0.5 mM, without S9",0.30
same,Increase in the number of yellow wells compared to the reference level,"S. typhimurium TA1535; 1.0 mM, +S9",0.54
same,Increase in the number of yellow wells compared to the reference level,"S. typhimurium TA1535; 1.0 mM, without S9",0.45
same,Increase in the number of yellow wells compared to the reference level,"S. typhimurium TA1535; 2.0 mM, +S9",0.13
same,Increase in the number of yellow wells compared to the reference level,"S. typhimurium TA1535; 2.0 mM, without S9",1.04
same,Increase in the number of yellow wells compared to the reference level,"S. typhimurium TA100; 0.5 mM, +S9",0.78
same,Increase in the number of yellow wells compared to the reference level,"S. typhimurium TA100; 0.5 mM, without S9",1.53
same,Increase in the number of yellow wells compared to the reference level,"S. typhimurium TA100; 1.0 mM, +S9",0.64
same,Increase in the number of yellow wells compared to the reference level,"S. typhimurium TA100; 1.0 mM, without S9",0.93
same,Increase in the number of yellow wells compared to the reference level,"S. typhimurium TA100; 2.0 mM, +S9",0.31
same,Increase in the number of yellow wells compared to the reference level,"S. typhimurium TA100; 2.0 mM, without S9",0.80
same,RM0,[1],2.46
same,Increase in the number of yellow wells compared to the reference level,"E. coli WP2; 0.5 mM, +S9",0.83
same,Increase in the number of yellow wells compared to the reference level,"E. coli WP2; 0.5 mM, without S9",0.50
same,Increase in the number of yellow wells compared to the reference level,"E. coli WP2; 1.0 mM, +S9",0.42
same,Increase in the number of yellow wells compared to the reference level,"E. coli WP2; 1.0 mM, without S9",1.00
same,Increase in the number of yellow wells compared to the reference level,"E. coli WP2; 2.0 mM, +S9",1.42
same,Increase in the number of yellow wells compared to the reference level,"E. coli WP2; 2.0 mM, without S9",0.83
same,Cytotoxicity study in B16F10 cells % viability,[2]; 150 µM,73.6%
same,Cytotoxicity study in B16F10 cells % viability,[2]; 200 µM,87.8%
same,Cytotoxicity study in B16F10 cells % viability,[2]; 250 µM,84.4%
same,DB (dicentric bridges in 1000 binucleate cells),[3]; 100 µM,3.3 ± 0.6
same,MN (number of micronuclei in 1000 binucleate cells),[3]; 100 µM,12.0 ± 5.7
same,NB (nuclear buds in 1000 binucleate cells),[3]; 100 µM,5.0 ± 2.8
same,NDI (nuclear division index),[3]; 100 µM,1.58
same,DB (dicentric bridges in 1000 binucleate cells),[3]; 150 µM,2.3 ± 0.6
same,MN (number of micronuclei in 1000 binucleate cells),[3]; 150 µM,8.0 ± 2.8
same,NB (nuclear buds in 1000 binucleate cells),[3]; 150 µM,5.5 ± 2.1
same,NDI (nuclear division index),[3]; 150 µM,1.62
same,DB (dicentric bridges in 1000 binucleate cells),[3]; 200 µM,3.0 ± 2.8
same,MN (number of micronuclei in 1000 binucleate cells),[3]; 200 µM,6.5 ± 2.1
same,NB (nuclear buds in 1000 binucleate cells),[3]; 200 µM,5.5 ± 0.7
same,NDI (nuclear division index),[3]; 200 µM,1.62
same,Tyrosinase inhibition with L-DOPA [%],tyrosinase from mushroom; L-DOPA,60.76±1.99% (500 µM)
same,IC50,"tyrosinase from mushroom; L-DOPA, read-out: Tyrosinase inhibition with L-DOPA, IC50",232 µM
same,Tyrosinase inhibition with L-tyrosine [%],tyrosinase from mushroom; L-tyrosine,79.20±1.20% (500 µM)
same,IC50,"tyrosinase from mushroom; L-tyrosine, read-out: Tyrosinase inhibition with L-tyrosine, IC50",165 µM
same,Increase in the number of yellow wells compared to the reference level,"S. typhimurium TA98; 0.5 mM, +S9",0.31
same,Increase in the number of yellow wells compared to the reference level,"S. typhimurium TA98; 0.5 mM, without S9",0.27
same,Increase in the number of yellow wells compared to the reference level,"S. typhimurium TA98; 1.0 mM, +S9",0.94
same,Increase in the number of yellow wells compared to the reference level,"S. typhimurium TA98; 1.0 mM, without S9",1.07
same,Increase in the number of yellow wells compared to the reference level,"S. typhimurium TA98; 2.0 mM, +S9",1.04
same,Increase in the number of yellow wells compared to the reference level,"S. typhimurium TA98; 2.0 mM, without S9",1.07
same,% Viability [mean],[4]; 100 µM,96.0%
same,% Viability [mean],[4]; 150 µM,90.3%
same,% Viability [mean],[4]; 200 µM,84.0%
"Cc1ccc(/C=C/C(=O)NCCCO)cc1 [H-410/21, (2E)-N-(3-hydroxypropyl)-3-(4-methylphenyl)prop-2-enamide]",RM0,[1],2.04
same,Cytotoxicity study in B16F10 cells % viability,[2]; 150 µM,88.8%
same,Cytotoxicity study in B16F10 cells % viability,[2]; 200 µM,90.7%
same,Cytotoxicity study in B16F10 cells % viability,[2]; 250 µM,79.8%
same,Tyrosinase inhibition with L-DOPA [%],tyrosinase from mushroom; L-DOPA,16.99±5.66% (500 µM)
same,Tyrosinase inhibition with L-tyrosine [%],tyrosinase from mushroom; L-tyrosine,0.51±5.40% (500 µM)
"Cc1ccc(/C=C/C(=O)NCCCCO)cc1 [H-411/21, (2E)-N-(4-hydroxybutyl)-3-(4-methylphenyl)prop-2-enamide]",RM0,[1],2.27
same,Cytotoxicity study in B16F10 cells % viability,[2]; 150 µM,50.6%
same,Cytotoxicity study in B16F10 cells % viability,[2]; 200 µM,34.9%
same,Cytotoxicity study in B16F10 cells % viability,[2]; 250 µM,41.2%
same,Tyrosinase inhibition with L-DOPA [%],tyrosinase from mushroom; L-DOPA,16.89±7.94% (500 µM)
same,Tyrosinase inhibition with L-tyrosine [%],tyrosinase from mushroom; L-tyrosine,20.43±2.09% (500 µM)
"O=C(/C=C/c1ccc(Cl)cc1)NCCCCCCO [H-426/21, (2E)-3-(4-chlorophenyl)-N-(6-hydroxyhexyl)prop-2-enamide]",RM0,[1],3.02
same,Cytotoxicity study in B16F10 cells % viability,[2]; 150 µM,30.3%
same,Cytotoxicity study in B16F10 cells % viability,[2]; 200 µM,28.2%
same,Cytotoxicity study in B16F10 cells % viability,[2]; 250 µM,28.3%
same,Tyrosinase inhibition with L-DOPA [%],"tyrosinase from mushroom; L-DOPA, 125 µM",30.66±1.82% (125 µM)
same,Tyrosinase inhibition with L-tyrosine [%],"tyrosinase from mushroom; L-tyrosine, 125 µM",39.89±3.21% (125 µM)
"O=C(/C=C/c1ccccc1)NCCO [H-429/21, (2E)-N-(2-hydroxyethyl)-3-phenylprop-2-enamide]",RM0,[1],1.27
same,Cytotoxicity study in B16F10 cells % viability,[2]; 150 µM,86.4%
same,Cytotoxicity study in B16F10 cells % viability,[2]; 200 µM,79.8%
same,Cytotoxicity study in B16F10 cells % viability,[2]; 250 µM,80.9%
same,Tyrosinase inhibition with L-DOPA [%],tyrosinase from mushroom; L-DOPA,30.54±1.20% (500 µM)
same,Tyrosinase inhibition with L-tyrosine [%],tyrosinase from mushroom; L-tyrosine,21.00±8.83% (500 µM)
"O=C(/C=C/c1ccccc1)NCCCO [KM-634, (2E)-N-(3-hydroxypropyl)-3-phenylprop-2-enamide]",RM0,[1],1.60
same,Cytotoxicity study in B16F10 cells % viability,[2]; 150 µM,76.1%
same,Cytotoxicity study in B16F10 cells % viability,[2]; 200 µM,70.5%
same,Cytotoxicity study in B16F10 cells % viability,[2]; 250 µM,63.3%
same,Tyrosinase inhibition with L-DOPA [%],tyrosinase from mushroom; L-DOPA,34.23±2.32% (500 µM)
same,Tyrosinase inhibition with L-tyrosine [%],tyrosinase from mushroom; L-tyrosine,27.41±2.24% (500 µM)

# Reference: patent EP4324461A1, “(E)-N-CINAMOYLAMINOALKANOLES WITH MELANOGENESIS INHIBITORY ACTIVITY” (UNIWERSYTET JAGIELLONSKI, priority 2022, dated 2024)
